Where two headings read alike, the source gives them in different places.
Assays:
[1] = test system: CCRF-CEM
Experimental: Statistical analyses. Descriptive statistics and significance testing were performed using Microsoft Excel. The Excel function “t.test” was used for Student's T-testing (two-tailed, type-2). Propagated standard deviations were calculated using standard methods. Correlation analyses were performed using Sigmaplot 11 software. […]
Due to the confounding effect of in vitro fatty acid conversion, correlation analyses were used to identify significant relationships between absolute levels of specific sphingolipids and cytotoxicity. […]

[2] = test system: COG-LL-317; type: cell-based, human
Experimental: (§1) Statistical analyses. […] Propagated standard deviations were calculated using standard methods. Correlation analyses were performed using Sigmaplot 11 software.

[3] = test system: COG-LL-332; type: cell-based, human
Experimental: as §1

[4] = test system: MOLT-4; type: cell-based, human
Experimental: as §1

SMILES	Pearson Coef. (r), sphingolipid level vs cytotoxicity [1]	Spearman Coef. (ρ), sphingolipid level vs cytotoxicity [1]	Pearson Coef. (r), sphingolipid level vs cytotoxicity [2]	Spearman Coef. (ρ), sphingolipid level vs cytotoxicity [2]	Pearson Coefficient (r), sphingolipid level vs cytotoxicity [3]	Spearman Coefficient (ρ), sphingolipid level vs cytotoxicity [3]	Pearson Coef. (r), sphingolipid level vs cytotoxicity [4]	Spearman Coef. (ρ), sphingolipid level vs cytotoxicity [4]	Pearson Coef. (r), sphingolipid level vs cytotoxicity ([1]; CCRF-CEM)	Spearman Coef. (ρ), sphingolipid level vs cytotoxicity ([1]; CCRF-CEM)
CCCCCCCCCCCCCCC[C@@H](O)[C@@H](N)COP(=O)(O)O [Sphingaine-1-P]	0.44	0.38	–	–	–	–	–	–	–	–
CCCCCCCCCCCCCCC[C@@H](O)[C@H](CO)NC(=O)CCCCCCCCCCCCC [C14:0-DHCer]	0.12	0.20	0.16	0.10	0.06	0.18	0.13	0.35	–	–
CCCCCCCCC=CCCCCCCCCCCCC(=O)NC(CO)C(O)CCCCCCCCCCCCCCC (stereo not shown) [C22:1-DHCer]	−0.13	0.22	−0.28	−0.26	0.07	0.62	−2.5 × 10^−3	0.24	–	–
CCCCCCCCCCCCCC=CC(O)C(CO)NC(=O)CCCCCCCCCCCCCCCCC (stereo not shown) [C18:0-Cer]	0.14	0.07	−0.45	−0.60	−0.54	−0.38	−0.33	−0.45	–	–
CCCCCCCCCCCCC/C=C/[C@@H](O)[C@@H](N)COP(=O)(O)O [Sphingosine-1-P]	–	–	–	–	–	–	–	–	−0.07	0.27
CCCCCCCCC=CCCCCCCCC(=O)NC(CO)C(O)C=CCCCCCCCCCCCCC (stereo not shown) [C18:1-Cer]	0.11	0.10	−0.50	−0.59	−0.45	−0.30	−0.52	−0.59	–	–
CCCCCCCCCCCCCCCCCC(=O)N[C@@H](CO)[C@H](O)CCCCCCCCCCCCCCC [C18:0-DHCer]	0.22	0.15	−0.22	−0.38	−0.16	−0.16	0.12	0.14	–	–
CCCCCCCCC=CCCCCCCCCCCCC(=O)NC(CO)C(O)C=CCCCCCCCCCCCCC (stereo not shown) [C22:1-Cer]	−0.23	−0.24	−0.28	−0.60	−0.14	−0.26	−0.32	−0.48	–	–
CCCCCCCCCCCCCCCCCCCCCC(=O)N[C@@H](CO)[C@H](O)CCCCCCCCCCCCCCC [C22:0-DHCer]	0.67	0.75	0.86	0.79	0.73	0.81	0.79	0.91	–	–
CCCCCCCCCCCCCCCC(=O)N[C@@H](CO)[C@H](O)CCCCCCCCCCCCCCC [C16:0-DHCer]	0.26	0.37	0.03	0	0.45	0.62	0.26	0.57	–	–
CCCCCCCCCCCCC/C=C/[C@@H](O)[C@@H](N)CO [Sphingosine]	0.02	−0.19	–	–	–	–	–	–	–	–
CCCCCCCC/C=C\CCCCCCCCCCCCCC(=O)N[C@@H](CO)[C@H](O)/C=C/CCCCCCCCCCCCC [C24:1-Cer]	−0.27	−0.32	−0.42	−0.74	−0.07	0.05	−0.43	−0.55	–	–
CCCCCCCC/C=C\CCCCCCCCCCCCCC(=O)N[C@@H](CO)[C@H](O)CCCCCCCCCCCCCCC [C24:1-DHCer]	−0.17	−0.07	−0.29	−0.21	0.14	0.45	−0.04	0.12	–	–
CCCCCCCCCCCCCCCCCCCCCCCC(=O)N[C@@H](CO)[C@H](O)CCCCCCCCCCCCCCC [C24:0-DHCer]	0.58	0.84	0.89	0.91	0.74	0.83	0.79	0.88	–	–
CCCCCCCCCCCCCC=CC(O)C(CO)NC(=O)CCCCCCCCCCCCCCCCCCCCC (stereo not shown) [C22:0-Cer]	0.42	0.48	0.59	0.33	0.45	0	0.46	0.31	–	–
CCCCCCCCCCCCCC=CC(O)C(CO)NC(=O)CCCCCCCCCCCCCCCCCCC (stereo not shown) [C20:0-Cer]	0.01	0.07	−0.63	−0.81	−0.79	−0.91	−0.46	−0.52	–	–
CCCCCCCCCCCCCC=CC(O)C(CO)NC(=O)CCCCCCCCCCCCCCCCCCCCCCC (stereo not shown) [C24:0-Cer]	0.40	0.41	0.48	0.25	0.39	0.38	0.33	0	–	–
CCCCCCCCCCCCCC=CC(O)C(CO)NC(=O)CCCCCCCCCCCCCCC (stereo not shown) [C16:0-Cer]	0.25	0.03	−0.48	−0.50	−0.09	−0.05	−0.62	−0.76	–	–
CCCCCCCCCCCCC/C=C/[C@@H](O)[C@H](CO)NC(=O)CCCCCCCCCCCCC [C14:0-Cer]	0.03	0.01	−0.54	−0.43	−0.32	−0.28	−0.53	−0.48	–	–
CCCCCCCCCCCCCCCCCCCC(=O)N[C@@H](CO)[C@H](O)CCCCCCCCCCCCCCC [C20:0-DHCer]	0.20	0.32	−0.04	0.14	−0.09	0	0.12	0.14	–	–
